Molecules are shown by their SMILES. Read-outs that look alike come from different tables or passages of the source.

This assay has as its target human APJ receptor (Homo sapiens (Human), UniProt P35414). Kind of assay: Intracellular cAMP accumulation assay (APJ hcAMP, HTRF). The assay is classed as cell-based. The conditions noted are these: human APJ, read-out: Human APJ cAMP EC50 Potency range. In short, it runs like this: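 HEK293 cells stably expressing human APJ, 5,000 per well, incubated 30 min at rt with compound, […] and 2 μM forskolin. cAMP measured by HTRF against a cAMP standard curve as inhibition of forskolin-driven production. EC50 from variable-slope sigmoidal fit.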

Sequence of human APJ receptor (P35414 whole entry): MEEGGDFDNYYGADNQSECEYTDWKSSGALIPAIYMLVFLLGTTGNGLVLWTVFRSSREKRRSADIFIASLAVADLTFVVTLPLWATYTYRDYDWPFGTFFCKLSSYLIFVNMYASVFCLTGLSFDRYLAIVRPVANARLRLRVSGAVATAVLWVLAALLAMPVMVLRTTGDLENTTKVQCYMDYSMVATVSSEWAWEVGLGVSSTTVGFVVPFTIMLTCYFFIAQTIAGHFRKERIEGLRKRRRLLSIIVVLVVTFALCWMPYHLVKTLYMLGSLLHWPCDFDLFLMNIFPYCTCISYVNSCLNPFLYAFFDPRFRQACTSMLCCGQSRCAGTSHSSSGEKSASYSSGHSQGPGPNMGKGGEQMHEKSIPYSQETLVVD

For `CCCCc1nc(=O)c(S(=O)(=O)c2ccc(-c3cccnc3C)cc2)c(O)n1[C@@H](CC)c1cccc(F)c1` [Example 213, 2-butyl-1-[(1S)-1-(3-fluorophenyl)propyl]-6-hydroxy-5-[4-(2-methylpyridin-3-yl)benzenesulfonyl]-1,4-dihydropyrimidin-4-one], the EC50 (intracellular cAMP accumulation) was in the range of 0.01 to 10 nM.

Turning to `CCCCc1nc(=O)c(S(=O)(=O)c2ccc(-c3cncc(F)c3)cc2)c(O)n1[C@@H](CC)c1cccc(F)c1` [Example 214, 2-butyl-1-[(1S)-1-(3-fluorophenyl)propyl]-5-[4-(5-fluoropyridin-3-yl)benzenesulfonyl]-6-hydroxy-1,4-dihydropyrimidin-4-one], for the setting “cAMP accumulation”, the half-maximal effective concentration (EC50) lay in the range of 0.01 to 10 nM. Turning to `CCCCc1nc(=O)c(S(=O)(=O)c2ccc(-c3cccnc3C)cc2)c(O)n1[C@@H](CC)c1ccc2c(c1)OCO2` [Example 215, 1-[(1S)-1-(2H-1,3-benzodioxol-5-yl)propyl]-2-butyl-6-hydroxy-5-[4-(2-methylpyridin-3-yl)benzenesulfonyl]-1,4-dihydropyrimidin-4-one], the EC50 (cAMP accumulation) was 0.01 to 10 nM. In the case of `CCCCc1nc(O)c(S(=O)(=O)c2ccc(Br)cc2)c(=O)n1[C@@H](CC)c1cccc(F)c1` [Example 216, 5-(4-bromobenzenesulfonyl)-2-butyl-3-[(1S)-1-(3-fluorophenyl)propyl]-6-hydroxy-3,4-dihydropyrimidin-4-one], under “cAMP accumulation”, the 50% effective concentration (EC50) lay within 0.01 to 10 nM. Take `CCCCc1nc(=O)c(S(=O)(=O)c2ccc(-c3ccnc(F)c3C)cc2)c(O)n1[C@@H](CC)c1cccc(F)c1` [Example 217, 2-butyl-5-[4-(2-fluoro-3-methylpyridin-4-yl)benzenesulfonyl]-1-[(1S)-1-(3-fluorophenyl)propyl]-6-hydroxy-1,4-dihydropyrimidin-4-one]: where the note is “cAMP accumulation”, the EC50 is 0.01 to 10 nM. For the compound `CCCCc1nc(=O)c(S(=O)(=O)c2ccc(-c3cncc(F)c3)cc2)c(O)n1[C@@H](CC)c1ccc2c(c1)OCO2` [Example 218, 1-[(1S)-1-(2H-1,3-benzodioxol-5-yl)propyl]-2-butyl-5-[4-(5-fluoropyridin-3-yl)benzenesulfonyl]-6-hydroxy-1,4-dihydropyrimidin-4-one], the EC50 (cAMP accumulation) was 0.01 to 10 nM. The same measure, in the same setting: the figure for `CCCCc1nc(O)c(S(=O)(=O)c2ccc(Br)cc2)c(=O)n1[C@@H](CC)c1ccc2c(c1)OCO2` [Example 219, 3-[(1S)-1-(2H-1,3-benzodioxol-5-yl)propyl]-5-(4-bromobenzenesulfonyl)-2-butyl-6-hydroxy-3,4-dihydropyrimidin-4-one] is 0.01 to 10 nM; for `CCCCc1nc(=O)c(S(=O)(=O)c2ccc(-c3ccc(F)nc3C)cc2)c(O)n1[C@@H](CC)c1ccc2c(c1)OCO2` [Example 220, 1-[(1S)-1-(2H-1,3-benzodioxol-5-yl)propyl]-2-butyl-5-[4-(6-fluoro-2-methylpyridin-3-yl)benzenesulfonyl]-6-hydroxy-1,4-dihydropyrimidin-4-one] it is 0.01 to 10 nM; for `CCCCc1nc(=O)c(S(=O)(=O)c2ccc(-c3cccnc3C)cc2)c(O)n1[C@H]1CCCc2ccccc21` [Example 221, 2-butyl-6-hydroxy-5-[4-(2-methylpyridin-3-yl)benzenesulfonyl]-1-[(1S)-1,2,3,4-tetrahydronaphthalen-1-yl]-1,4-dihydropyrimidin-4-one] it is 0.01 to 10 nM. On the same count and under the same terms, then `CCCCc1nc(=O)c(S(=O)(=O)c2ccc(-c3cncc(F)c3)cc2)c(O)n1[C@H]1CCCc2ccccc21` [Example 222, 2-butyl-5-[4-(5-fluoropyridin-3-yl)benzenesulfonyl]-6-hydroxy-1-[(1S)-1,2,3,4-tetrahydronaphthalen-1-yl]-1,4 dihydropyrimidin-4-one], with 0.01 to 10 nM; and `CCCCc1nc(O)c(S(=O)(=O)c2ccc(Br)cc2)c(=O)n1[C@@H](CC)c1cccc(C#N)c1` [Example 223, 3-[(1S)-1-[5-(4-bromobenzenesulfonyl)-2-butyl-4-hydroxy-6-oxo-1,6-dihydropyrimidin-1-yl]propyl]benzonitrile], with 0.01 to 10 nM; and `CCCCc1nc(=O)c(S(=O)(=O)c2ccc(-c3ccncc3C)cc2)c(O)n1[C@H]1CCCc2ccccc21` [Example 224, 2-butyl-6-hydroxy-5-[4-(3-methylpyridin-4-yl)benzenesulfonyl]-1-[(1S)-1,2,3,4-tetrahydronaphthalen-1-yl]-1,4-dihydropyrimidin-4-one], with 0.01 to 10 nM. For `CCCCc1nc(=O)c(S(=O)(=O)c2ccc(-c3cncc(F)c3)cc2)c(O)n1[C@@H](CC)c1cccc(C#N)c1` [Example 225, 3-[(1S)-1-{2-butyl-5-[4-(5-fluoropyridin-3-yl)benzenesulfonyl]-6-hydroxy-4-oxo-1,4-dihydropyrimidin-1-yl}propyl]benzonitrile], the EC50 (cAMP accumulation) is 0.01 to 10 nM. Turning to `CCCCc1nc(=O)c(S(=O)(=O)c2ccc(-c3ccc(F)nc3C)cc2)c(O)n1[C@@H](CC)c1cccc(C#N)c1` [Example 226, 3-[(1S)-1-{2-butyl-5-[4-(6-fluoro-2-methylpyridin-3-yl)benzenesulfonyl]-6-hydroxy-4-oxo-1,4-dihydropyrimidin-1-yl}propyl]benzonitrile], the EC50 (cAMP accumulation) was 0.01 to 10 nM. The same measure, in the same setting: the figure for `CCCCc1nc(=O)c(S(=O)(=O)c2ccc(-c3cccnc3C)cc2)c(O)n1[C@@H](C)c1ccc(OC)cc1` [Example 227] is 0.01 to 10 nM. In the case of `CCCCc1nc(=O)c(S(=O)(=O)c2ccc(-c3ccncc3C)cc2)c(O)n1[C@@H](C)c1ccccc1OC` [Example 228, 2-butyl-6-hydroxy-1-[(1S)-1-(2-methoxyphenyl)ethyl]-5-[4-(3-methylpyridin-4-yl)benzenesulfonyl]-1,4-dihydropyrimidin-4-one], the concentration giving a half-maximal response (EC50) (cAMP accumulation) lay within 0.01 to 10 nM. On the same count and under the same terms, the figure for `CCCCc1nc(=O)c(S(=O)(=O)c2ccc(-c3ccncc3C)cc2)c(O)n1[C@@H](CC)c1cccc(C#N)c1` [Example 229, 3-[(1S)-1-{2-butyl-6-hydroxy-5-[4-(3-methylpyridin-4-yl)benzenesulfonyl]-4-oxo-1,4-dihydropyrimidin-1-yl}propyl]benzonitrile] is 0.01 to 10 nM. For `CCCCc1nc(=O)c(S(=O)(=O)c2ccc(-c3ccnc(F)c3C)cc2)c(O)n1[C@@H](CC)c1cccc(C#N)c1` [Example 230, 3-[(1S)-1-{2-butyl-5-[4-(2-fluoro-3-methylpyridin-4-yl)benzenesulfonyl]-6-hydroxy-4-oxo-1,4-dihydropyrimidin-1-yl}propyl]benzonitrile], the concentration for a half-maximal effect (EC50) (cAMP accumulation) is 0.01 to 10 nM. Turning to `CCCCc1nc(=O)c(S(=O)(=O)c2ccc(-c3cccnc3C)cc2)c(O)n1[C@@H](C)c1ccccc1OC` [Example 231, 2-butyl-6-hydroxy-1-[(1S)-1-(2-methoxyphenyl)ethyl]-5-[4-(2-methylpyridin-3-yl)benzenesulfonyl]-1,4-dihydropyrimidin-4-one], the 50% effective concentration (EC50) (cAMP accumulation) lay in the range of 0.01 to 10 nM. Same read-out and setting: the figure for `CCCCc1nc(=O)c(S(=O)(=O)c2ccc(-c3cncc(F)c3)cc2)c(O)n1[C@@H](C)c1ccccc1OC` [Example 232, 2-butyl-5-[4-(5-fluoropyridin-3-yl)benzenesulfonyl]-6-hydroxy-1-[(1S)-1-(2-methoxyphenyl)ethyl]-1,4-dihydropyrimidin-4-one] is 0.01 to 10 nM; for `CCCCc1nc(=O)c(S(=O)(=O)c2ccc(-c3ccc(F)nc3C)cc2)c(O)n1[C@@H](C)c1ccc(OC)cc1` [Example 233, 2-butyl-5-[4-(6-fluoro-2-methylpyridin-3-yl)benzenesulfonyl]-6-hydroxy-1-[(1S)-1-(4-methoxyphenyl)ethyl]-1,4-dihydropyrimidin-4-one] it is 0.01 to 10 nM; for `CCCCc1nc(=O)c(S(=O)(=O)c2ccc(-c3cccnc3C)cc2)c(O)n1[C@@H](CC)c1cccc(C#N)c1` [Example 234, 3-[(1S)-1-{2-butyl-6-hydroxy-5-[4-(2-methylpyridin-3-yl)benzenesulfonyl]-4-oxo-1,4-dihydropyrimidin-1-yl}propyl]benzonitrile] it is 0.01 to 10 nM. Turning to `CCCCc1nc(O)c(S(=O)(=O)c2ccc(Br)cc2)c(=O)n1[C@H]1CCCc2ccccc21` [Example 235, 5-(4-bromobenzenesulfonyl)-2-butyl-6-hydroxy-3-[(1S)-1,2,3,4-tetrahydronaphthalen-1-yl]-3,4-dihydropyrimidin-4-one], for the setting “cAMP accumulation”, the EC50 fell in the range of 10 to 100 nM.

As to `CCCCc1nc(=O)c(S(=O)(=O)c2ccc(-c3ccncc3C)cc2)c(O)n1[C@@H](C)c1ccc(OC)cc1` [Example 236, 2-butyl-6-hydroxy-1-[(1S)-1-(4-methoxyphenyl)ethyl]-5-[4-(3-methylpyridin-4-yl)benzenesulfonyl]-1,4-dihydropyrimidin-4-one], the EC50 (cAMP accumulation) was 0.01 to 10 nM. With `CCCCc1nc(=O)c(S(=O)(=O)c2ccc(-c3ccc(F)nc3C)cc2)c(O)n1[C@H]1CCCc2ccccc21` [Example 237, 2-butyl-5-[4-(6-fluoro-2-methylpyridin-3-yl)benzenesulfonyl]-6-hydroxy-1-[(1S)-1,2,3,4-tetrahydronaphthalen-1-yl]-1,4-dihydropyrimidin-4-one], the EC50 (cAMP accumulation) was 0.01 to 10 nM. Turning to `CCCCc1nc(O)c(S(=O)(=O)c2ccc(Br)cc2)c(=O)n1[C@@H](C)c1ccccc1OC` [Example 238, 5-(4-bromobenzenesulfonyl)-2-butyl-6-hydroxy-3-[(1S)-1-(2-methoxyphenyl)ethyl]-3,4-dihydropyrimidin-4-one], the EC50 (cAMP accumulation) lay within 100 to 300 nM. Consider `CCCCc1nc(=O)c(S(=O)(=O)c2ccc(-c3ccnc(F)c3C)cc2)c(O)n1[C@@H](C)c1ccccc1OC` [Example 239, 2-butyl-5-[4-(2-fluoro-3-methylpyridin-4-yl)benzenesulfonyl]-6-hydroxy-1-[(1S)-1-(2-methoxyphenyl)ethyl]-1,4-dihydropyrimidin-4-one], for which the EC50 (cAMP accumulation) lay within 0.01 to 10 nM.

With `CCCCc1nc(=O)c(S(=O)(=O)c2ccc(-c3ccc(F)nc3C)cc2)c(O)n1[C@@H](C)c1ccccc1OC` [Example 240, 2-butyl-5-[4-(6-fluoro-2-methylpyridin-3-yl)benzenesulfonyl]-6-hydroxy-1-[(1S)-1-(2-methoxyphenyl)ethyl]-1,4-dihydropyrimidin-4-one], where the note is “cAMP accumulation”, the EC50 was 0.01 to 10 nM.

Values taken from US10508104B2, “6-hydroxy-5-(phenyl/heteroarylsulfonyl)pyrimidin-4(1H)-one as APJ agonists” (Bristol-Myers Squibb Company, priority 2016, dated 2019).
